Source: patent publication US20230094471A1, “CYTOTOXIC BIS-BENZODIAZEPINE DERIVATIVES AND CONJUGATES THEREOF WITH CELL-BINDING AGENTS FOR INHIBITING ABNORMAL CELL GROWTH OR FOR TREATING PROLIFERATIVE DISEASES” (priority 2019, published 2023)

How the values were obtained:
KB (cervical carcinoma) = experiment: In vitro cytotoxicity assay (WST-8), KB cells; conditions: Homo sapiens, 120 h, read-out: IC50 values for free cytotoxic compounds, KB
Method: (§1) The following cell lines were used for the studies: KB (cervical carcinoma, ATCC), NCI-H2110 (Non Small Cell Lung Carcinoma, ATCC), Namalwa (Burkitt's lymphoma, ATCC), and T47D (breast epithelial cancer, ATCC). The cells were maintained and plated for the cytotox experiments in media recommended by the manufacturers. Cells were plated in the 96-well flat bottom plates at a seeding density of 1,000 cells per well (KB, Namalwa) or 2,000 cell per well (NCI H2110, T47D). […] To determine specificity of cytotoxic activity of the conjugates an excess of unconjugated antibody was added to a separate set of diluted conjugates (+block samples, IC50 table). The plates were incubated at 37° C., 5% CO2 for either 4 days (T47D cells) or 5 days (KB, NCI H2110 cells). Alamar blue assay (Invitrogen) was used to determine viability of T47D cells, and WST-8 assay (Donjindo Molecular Technologies, Inc.) was applied for viability of KB, NCI H2110, Namalwa cells. The assays were performed in accordance with the manufacturer's protocols. Killing curves and IC50 were generated using a sigmoidal dose-response nonlinear regression curve fit (GraphPad Software Inc.).

[1] = system: Namalwa (Burkitt's lymphoma); experiment: In vitro cytotoxicity assay (WST-8), Namalwa cells; conditions: read-out: IC50 values for free cytotoxic compounds, Namalwa
Method: as §1

[2] = Phase I clinical evaluation (Hochhauser et al., 2009); cited from earlier work

Row | Compound | IC50 (KB (cervical carcinoma)) [pM] | IC50 [1] [pM] | maximum tolerated dose [2] [μg/m^2]
1 | COc1cc2c(cc1OCCCCCOc1cc3c(cc1OC)C(=O)N1Cc4ccccc4C[C@H]1CN3)N=C[C@@H]1Cc3ccccc3N1C2=O [Compound 108] | 50 | 10 | 
2 | COc1cc2c(cc1OCCCCCOc1cc3c(cc1OC)C(=O)N1c4ccccc4C[C@H]1CN3)N=C[C@@H]1Cc3ccccc3CN1C2=O [Compound 123] | 3 | 1 | 
3 | COc1cc2c(cc1OCc1cccc(COc3cc4c(cc3OC)C(=O)N3c5ccccc5C[C@H]3CN4)c1)N=C[C@@H]1Cc3ccccc3N1C2=O [Compound 150] | 8 | 1 | 
4 | COCCOCCOCCNc1cc(COc2cc3c(cc2OC)C(=O)N2c4ccccc4C[C@H]2C=N3)cc(COc2cc3c(cc2OC)C(=O)N2c4ccccc4C[C@H]2CN3)c1 [Compound 155] | 20 | 2 | 
5 | COC(=O)c1cc(COc2cc3c(cc2OC)C(=O)N2c4ccccc4C[C@H]2C=N3)cc(COc2cc3c(cc2OC)C(=O)N2c4ccccc4C[C@H]2CN3)c1 [Compound 157] | 3 | 1 | 
6 | COc1cc2c(cc1OCc1cccc(COc3cc4c(cc3OC)C(=O)N3c5ccccc5C[C@H]3CN4)n1)N=C[C@@H]1Cc3ccccc3N1C2=O [Compound 159] | 3 | 1 | 
7 | COc1cc2c(cc1OCCCOc1cc3c(cc1OC)C(=O)N1c4ccccc4C[C@H]1CN3)N=C[C@@H]1Cc3ccccc3N1C2=O [Compound 161] | 250 | 30 | 
8 | COc1cc2c(cc1OCCCCCOc1cc3c(cc1OC)C(=O)N1c4ccccc4C[C@H]1CN3)N=C[C@@H]1Cc3ccccc3N1C2=O [Compound 162] | 20 | 3 | 
9 | C=C1C[C@H]2C=Nc3cc(OCCCOc4cc5c(cc4OC)C(=O)N4CC(=C)C[C@H]4C=N5)c(OC)cc3C(=O)N2C1 [SJG-136] |  |  | 45
